Assay results taken from patent US20250250269A1, “HETEROCYCLIC GLP-1 AGONISTS” (Gasherbrum Bio, Inc., priority 2022, published 2025).

Target: T1, GLP-1 Receptor (Homo sapiens, UniProt P43220)
T1 construct: host or cells: HEK293/CRE-Luc (HEK293/GLP1R/CRE-LUC)
Experiment: GLP-1R agonist cAMP stimulation assay (HEK293/GLP1R/CRE-LUC cells, Cisbio cAMP dynamic 2 kit)
Type: cell-based
Details: HEK293/CRE-Luc cells stably expressing the GLP-1 Receptor, 30 min at 37° C.
Description: Activation of GLP-1 receptor is known to stimulate cyclic AMP (cAMP) production in cells which indicates primary coupling to the Gas subunit of the G protein heterotrimeric complex.
To optimize functional activity directed toward Gas coupling, a HEK293/CRE-Luc cell line developed by HDB stably expressing the GLP-1 Receptor was used. 200× concentration of compound working solutions were prepared (Agilent Technologies Bravo) with ½ log serial dilution in 384-well Echo LDV plate (Labcyte, Cat #LP-0200). […] 200× concentration of compound working solutions were moved to 384-well white low volume plate (Greiner, Cat #784075) using Labcyte ECHO550. 1×10^5 cells/mL HEK293/GLP1R/CRE-LUC (HD Biosciences) cell suspensions prepared with assay buffer [DPBS containing 0.5 mM IBMX (Sigma, Cat #15879) and 0.1% BSA (GENVIEW, Cat #FA016-100g)], 10 μL cell suspensions were added to each well of previous generated assay plate which already contains […] compound at 200×concentration using ThermoFisher Multidrop Combi (1000 cells/well). Seal the plate and incubate at 37° C. with 5% CO2 for 30 min.
After incubation the cAMP assay signal was generated using cAMP dynamic 2 Kit (Cisbio). 5 μL cAMP-d2 working solution was added to each well, followed with 5 μL Anti-cAMP antibody-cryptate working solution added to each well using ThermoFisher Multidrop Combi. Incubate at room temperature for 1 hour protected from light. Read the fluorescence at 665 and 615 nm with Reader PerkinElmer EnVision.

T1 sequence (P43220 24-463, species assumed): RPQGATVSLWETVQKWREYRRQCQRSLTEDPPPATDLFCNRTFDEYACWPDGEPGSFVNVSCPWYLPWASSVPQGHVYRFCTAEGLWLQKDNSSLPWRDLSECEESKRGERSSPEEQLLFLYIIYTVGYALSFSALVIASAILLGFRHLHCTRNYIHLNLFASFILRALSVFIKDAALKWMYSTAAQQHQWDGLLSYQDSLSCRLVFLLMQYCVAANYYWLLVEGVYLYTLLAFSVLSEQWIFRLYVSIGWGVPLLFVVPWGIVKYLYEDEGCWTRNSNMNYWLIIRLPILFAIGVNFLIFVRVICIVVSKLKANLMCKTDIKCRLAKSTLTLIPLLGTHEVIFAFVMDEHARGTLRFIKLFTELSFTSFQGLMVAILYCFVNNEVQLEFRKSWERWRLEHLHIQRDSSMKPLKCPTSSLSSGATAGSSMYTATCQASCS

Structure (SMILES) | EC50 [nM]
Fc1ccc(COc2cccc(C3CCN(Cc4nc5cc(-c6nnc(C(F)(F)F)[nH]6)ncc5n4C[C@@H]4CCO4)CC3)n2)c2c1OCO2 [Compound 17, (S)-2-((4-(6-((7-fluorobenzo[d][1,3]dioxol-4-yl)methoxy)pyridin-2-yl)piperidin-1-yl)methyl)-3-(oxetan-2-ylmethyl)-6-(5-(trifluoromethyl)-4H-1,2,4-triazol-3-yl)-3H-imidazo[4,5-c]pyridine] | < 1
FC1(F)Oc2cccc(COc3cccc(C4CCN(Cc5nc6cc(-c7nnc(C(F)(F)F)[nH]7)ncc6n5C[C@@H]5CCO5)CC4)n3)c2O1 [Compound 18, (S)-2-((4-(6-((2,2-difluorobenzo[d][1,3]dioxol-4-yl)methoxy)pyridin-2-yl)piperidin-1-yl)methyl)-3-(oxetan-2-ylmethyl)-6-(5-(trifluoromethyl)-4H-1,2,4-triazol-3-yl)-3H-imidazo[4,5-c]pyridine] | < 1
[2H]C1([2H])Oc2cccc(COc3cccc(C4CCN(Cc5nc6cc(-c7nnc(C(F)(F)F)[nH]7)ncc6n5C[C@@H]5CCO5)CC4)n3)c2O1 [Compound 19, (S)-2-((4-(6-((benzo[d][1,3]dioxol-4-yl-2,2-d2)methoxy)pyridin-2-yl)piperidin-1-yl)methyl)-3-(oxetan-2-ylmethyl)-6-(5-(trifluoromethyl)-4H-1,2,4-triazol-3-yl)-3H-imidazo[4,5-c]pyridine] | < 1
FC(F)(F)c1nnc(-c2cc3nc(CN4CCC(c5cccc(OCc6nc7ccccc7s6)n5)CC4)n(C[C@@H]4CCO4)c3cn2)[nH]1 [Compound 20, (S)-2-(((6-(1-((3-(oxetan-2-ylmethyl)-6-(5-(trifluoromethyl)-4H-1,2,4-triazol-3-yl)-3H-imidazo[4,5-c]pyridin-2-yl)methyl)piperidin-4-yl)pyridin-2-yl)oxy)methyl)benzo[d]thiazole] | < 1
Cc1ccc(COc2cccc(C3CCN(Cc4nc5cc(-c6nnc(C(F)(F)F)[nH]6)ncc5n4C[C@@H]4CCO4)CC3)n2)nn1 [Compound 21, 3-methyl-6-{[(6-{1-[(3-{[(2S)-oxetan-2-yl]methyl}-6-[5-(trifluoromethyl)-4H-1,2,4-triazol-3-yl]-3H-imidazo[4,5-c]pyridin-2-yl)methyl]piperidin-4-yl}pyridin-2-yl)oxy]methyl}pyridazine] | < 1
Fc1cn(C2CC2)nc1COc1cccc(C2CCN(Cc3nc4cc(-c5nnc(C(F)(F)F)[nH]5)ncc4n3C[C@@H]3CCO3)CC2)n1 [Compound 22, (S)-2-((4-(6-((1-cyclopropyl-4-fluoro-1H-pyrazol-3-yl)methoxy)pyridin-2-yl)piperidin-1-yl)methyl)-3-(oxetan-2-ylmethyl)-6-(5-(trifluoromethyl)-4H-1,2,4-triazol-3-yl)-3H-imidazo[4,5-c]pyridine] | 1 to 100
C[C@]1(c2ccc(Cl)cc2F)Oc2cccc(C3CCN(Cc4nc5cc(C(=O)O)ncc5n4C[C@@H]4CCO4)CC3)c2O1 [Compound 23, 2-((4-((S)-2-(4-chloro-2-fluorophenyl)-2-methylbenzo[d][1,3]dioxol-4-yl)piperidin-1-yl)methyl)-3-(((S)-oxetan-2-yl)methyl)-3H-imidazo[4,5-c]pyridine-6-carboxylic acid] | < 1
CNC(=O)c1cc2nc(CN3CCC(c4cccc5c4O[C@@](C)(c4ccc(Cl)cc4F)O5)CC3)n(C[C@@H]3CCO3)c2cn1 [Compound 24, 2-((4-((S)-2-(4-chloro-2-fluorophenyl)-2-methylbenzo[d][1,3]dioxol-4-yl)piperidin-1-yl)methyl)-N-methyl-3-(((S)-oxetan-2-yl)methyl)-3H-imidazo[4,5-c]pyridine-6-carboxamide] | < 1
C[C@]1(c2ccc(Cl)cc2F)Oc2cccc(C3CCN(Cc4nc5cc(C(=O)NCC(F)(F)F)ncc5n4C[C@@H]4CCO4)CC3)c2O1 [Compound 25, 2-((4-((S)-2-(4-chloro-2-fluorophenyl)-2-methylbenzo[d][1,3]dioxol-4-yl)piperidin-1-yl)methyl)-3-(((S)-oxetan-2-yl)methyl)-N-(2,2,2-trifluoroethyl)-3H-imidazo[4,5-c]pyridine-6-carboxamide] | < 1
COCCNC(=O)c1cc2nc(CN3CCC(c4cccc5c4O[C@@](C)(c4ccc(Cl)cc4F)O5)CC3)n(C[C@@H]3CCO3)c2cn1 [Compound 26, 2-((4-((S)-2-(4-chloro-2-fluorophenyl)-2-methylbenzo[d][1,3]dioxol-4-yl)piperidin-1-yl)methyl)-N-(2-methoxyethyl)-3-(((S)-oxetan-2-yl)methyl)-3H-imidazo[4,5-c]pyridine-6-carboxamide] | < 1
C[C@]1(c2ccc(Cl)cc2F)Oc2cccc(C3CCN(Cc4nc5c(F)c(C(=O)O)ccc5n4C[C@@H]4CCO4)CC3)c2O1 [Compound 27, 2-((4-((S)-2-(4-chloro-2-fluorophenyl)-2-methylbenzo[d][1,3]dioxol-4-yl)piperidin-1-yl)methyl)-4-fluoro-1-(((S)-oxetan-2-yl)methyl)-1H-benzo[d]imidazole-5-carboxylic acid] | < 1
O=C(O)c1cc2nc(CN3CCC(c4cccc(OCc5ccc(Cl)cc5F)n4)CC3)n(C[C@@H]3CCO3)c2cn1 [Compound 28, (S)-2-((4-(6-((4-chloro-2-fluorobenzyl)oxy)pyridin-2-yl)piperidin-1-yl)methyl)-3-(oxetan-2-ylmethyl)-3H-imidazo[4,5-c]pyridine-6-carboxylic acid] | < 1
O=C(O)c1cc2nc(CN3CC=C(c4cccc(OCc5ccc(Cl)cc5F)n4)CC3)n(C[C@@H]3CCO3)c2cn1 [Compound 29, (S)-2-((6-((4-chloro-2-fluorobenzyl)oxy)-3′,6′-dihydro-[2,4′-bipyridin]-1′(2′H)-yl)methyl)-3-(oxetan-2-ylmethyl)-3H-imidazo[4,5-c]pyridine-6-carboxylic acid] | < 1
O=C(O)c1cc2nc(CN3CC=C(c4ccc(F)c(OCc5ccc(Cl)cc5F)c4)CC3)n(C[C@@H]3CCO3)c2cn1 [Compound 30, (S)-2-((4-(3-((4-chloro-2-fluorobenzyl)oxy)-4-fluorophenyl)-3,6-dihydropyridin-1(2H)-yl)methyl)-3-(oxetan-2-ylmethyl)-3H-imidazo[4,5-c]pyridine-6-carboxylic acid] | 1 to 100
COc1cc(Cl)ccc1COc1cc(C2=CCN(Cc3nc4cc(-c5nnc(C(F)(F)F)[nH]5)ncc4n3C[C@@H]3CCO3)CC2)ccc1F [Compound 31, (S)-2-((4-(3-((4-chloro-2-methoxybenzyl)oxy)-4-fluorophenyl)-3,6-dihydropyridin-1(2H)-yl)methyl)-3-(oxetan-2-ylmethyl)-6-(5-(trifluoromethyl)-4H-1,2,4-triazol-3-yl)-3H-imidazo[4,5-c]pyridine] | < 1
NC(=O)c1nnc(-c2cc3nc(CN4CC=C(c5ccc(F)c(OCc6ccc(Cl)cc6F)c5)CC4)n(C[C@@H]4CCO4)c3cn2)[nH]1 [Compound 32, (S)-5-(2-((4-(3-((4-chloro-2-fluorobenzyl)oxy)-4-fluorophenyl)-3,6-dihydropyridin-1(2H)-yl)methyl)-3-(oxetan-2-ylmethyl)-3H-imidazo[4,5-c]pyridin-6-yl)-4H-1,2,4-triazole-3-carboxamide] | < 1
N#Cc1nnc(-c2cc3nc(CN4CC=C(c5ccc(F)c(OCc6ccc(Cl)cc6F)c5)CC4)n(C[C@@H]4CCO4)c3cn2)[nH]1 [Compound 33, (S)-5-(2-((4-(3-((4-chloro-2-fluorobenzyl)oxy)-4-fluorophenyl)-3,6-dihydropyridin-1(2H)-yl)methyl)-3-(oxetan-2-ylmethyl)-3H-imidazo[4,5-c]pyridin-6-yl)-4H-1,2,4-triazole-3-carbonitrile] | < 1
C[C@]1(c2ccc(Cl)cc2F)Oc2cccc(C3CCN(Cc4nc5c(F)c(-c6noc(=O)[nH]6)ccc5n4C[C@@H]4CCO4)CC3)c2O1 [Compound 34, 3-(2-((4-((S)-2-(4-chloro-2-fluorophenyl)-2-methylbenzo[d][1,3]dioxol-4-yl)piperidin-1-yl)methyl)-4-fluoro-1-(((S)-oxetan-2-yl)methyl)-1H-benzo[d]imidazol-5-yl)-1,2,4-oxadiazol-5(4H)-one] | < 1
O=c1[nH]c(-c2ccc3c(nc(CN4CCC(c5cccc(OCc6ccc(Cl)cc6F)n5)CC4)n3C[C@@H]3CCO3)c2F)no1 [Compound 35, (S)-3-(2-((4-(6-((4-chloro-2-fluorobenzyl)oxy)pyridin-2-yl)piperidin-1-yl)methyl)-4-fluoro-1-(oxetan-2-ylmethyl)-1H-benzo[d]imidazol-5-yl)-1,2,4-oxadiazol-5(4H)-one] | < 1
C[C@]1(c2ccc(Cl)cn2)Oc2cccc(C3CCN(Cc4nc5c(F)c(-c6noc(=O)[nH]6)ccc5n4C[C@@H]4CCO4)CC3)c2O1 [Compound 36, 3-(2-((4-((S)-2-(5-chloropyridin-2-yl)-2-methylbenzo[d][1,3]dioxol-4-yl)piperidin-1-yl)methyl)-4-fluoro-1-(((S)-oxetan-2-yl)methyl)-1H-benzo[d]imidazol-5-yl)-1,2,4-oxadiazol-5(4H)-one] | < 1
